Patent US7183415B2, “Quinoline compound” (Takeda Pharmaceutical Company Limited, priority 2001, dated 2007)

How the values were obtained:
SD (Sprague Dawley) rats = assay: Evaluation of antidepressive action by forced swim test; type: in vivo, rat; details: 3 mg/kg body weight, oral, 30 minutes before test, five minutes measured, n=10; control group 30.86±8.71
Description: By performing a forced swim test using SD (Sprague Dawley) rats (seven-week-old, male, body weight 233.3–266.9 g, purchased from Japan Clea), the antidepressive action of the compound of the present invention was evaluated.
First, a suspension of the compound of Example 19 in 0.5% methyl cellulose was orally administered to SD rats (n=10) (compound dose: 3 mg/kg body weight). Thirty minutes later, the rats were placed in a pipe (diameter 21 cm, height 50 cm) made of Plexiglass (trade name, made by Rohm & Haas, U.S.A.) containing tap water (water temperature 25±2° C., 30 cm deep). Immobility time of the rats for five minutes thereafter was measured using a digital video camera.
In addition, 0.5% methyl cellulose suspension without the compound was orally administered to SD rats (n=10), and the rats were subjected the forced swim test in the same manner as above and taken as a control group.

| melting point | Compound | immobility time (seconds, mean±standard deviation) (SD (Sprague Dawley) rats) |
| --- | --- | --- |
| 220 to 222 °C | Cc1c(NC(=O)c2ccc(-c3ccc(F)cc3)cc2)ccc2cc(CN3CCCC3)cnc12 [Example 19, 4′-fluoro-N-[8-methyl-3-(1-pyrrolidinylmethyl)-7-quinolinyl][1,1′-biphenyl]-4-carboxamide] | 15.93 ± 5.62 s |
| 223 to 227 °C | Cc1cc2cc(CN3CCC(CCC(N)=O)CC3)cnc2cc1NC(=O)c1ccc(-c2ccc(F)cc2)cc1 [Example 253, N-(3-{[4-(3-amino-3-oxopropyl)-1-piperidinyl]methyl}-6-methyl-7-quinolinyl)-4′-fluoro[1,1′-biphenyl]-4-carboxamide] |  |
| 203 °C | CCN(CC)C(=O)C1CCN(Cc2cnc3cc(NC(=O)c4ccc(-c5ccc(F)cc5)cc4)c(C)cc3c2)CC1 [Example 272, N,N-diethyl-1-[(7-{[(4′-fluoro-1,1′-biphenyl-4-yl)carbonyl]amino}-6-methyl-3-quinolinyl)methyl]piperidine-4-carboxamide] |  |
| 228 to 230 °C | CCNC(=O)COC1CCN(Cc2cnc3cc(NC(=O)c4ccc(-c5ccc(F)cc5)cc4)ccc3c2)CC1 [Example 48, N-[3-({4-[2-(ethylamino)-2-oxoethoxy]-1-piperidinyl}methyl)-7-quinolinyl]-4′-fluoro[1,1′-biphenyl]-4-carboxamide] |  |
| 198 °C | CSc1ccc(-c2ccc(C(=O)Nc3cc4ncc(CN5CCCC5)cc4cc3C)cc2)cc1 [Example 219, N-[6-methyl-3-(1-pyrrolidinylmethyl)-7-quinolinyl]-4′-(methylthio)-[1,1′-biphenyl]-4-carboxamide] |  |
| 181 to 183 °C | Cc1c(NC(=O)c2ccc(-c3ccc(Cl)cc3)cc2F)ccc2cc(CN3CCCC3)cnc12 [Example 146, 4′-chloro-3-fluoro-N-[8-methyl-3-(1-pyrrolidinylmethyl)-7-quinolinyl][1,1′-biphenyl]-4-carboxamide] |  |
| 200 to 203 °C | Cc1cc(-c2ccc(F)cc2)ccc1C(=O)Nc1ccc2cc(CN3CCCC3)cnc2c1C [Example 158, 4′-fluoro-3-methyl-N-[8-methyl-3-(1-pyrrolidinylmethyl)-7-quinolinyl][1,1′-biphenyl]-4-carboxamide] |  |
| 150 to 151 °C | Cc1ccccc1-c1ccc(C(=O)Nc2ccc3cc(CN4CCCC4)cnc3c2C)cc1 [Example 111, 2′-methyl-N-[8-methyl-3-(1-pyrrolidinylmethyl)-7-quinolinyl][1,1′-biphenyl]-4-carboxamide] |  |
| 165 to 167 °C | COc1ccc(-c2ccc(C(=O)Nc3ccc4cc(CN5CCCCCC5)cnc4c3C)cc2)cc1 [Example 179, N-[3-(1-azepanylmethyl)-8-methyl-7-quinolinyl]-4′-methoxy[1,1′-biphenyl]-4-carboxamide] |  |
| 202 to 203 °C | Cc1c(NC(=O)c2ccc(-c3ccc(C(F)(F)F)cc3)cc2F)ccc2cc(CN3CCCC3)cnc12 (hydrate or solvate) [Example 138, 3-fluoro-N-[8-methyl-3-(1-pyrrolidinylmethyl)-7-quinolinyl]-4′-(trifluoromethyl)[1,1′-biphenyl]-4-carboxamide] |  |
| 163 to 166 °C | Cc1cc2cc(CN3CCCC3)cnc2cc1NC(=O)c1ccc(-c2ccc(F)cc2)c(F)c1 [Example 233, 2,4′-difluoro-N-[6-methyl-3-(1-pyrrolidinylmethyl)-7-quinolinyl][1,1′-biphenyl]-4-carboxamide] |  |
| 216 °C | Cc1cc2cc(CN3CCCC3)cnc2cc1NC(=O)c1ccc(-c2ccc(Cl)s2)cc1 [Example 220, 4-(5-chlorothien-2-yl)-N-[6-methyl-3-(1-pyrrolidinylmethyl)-7-quinolinyl]benzamide] |  |
| 138 to 139 °C | Cc1c(NC(=O)c2ccc(-c3ccccc3)c(F)c2)ccc2cc(CN3CCCCC3)cnc12 (hydrate or solvate) [Example 175, 2-fluoro-N-[8-methyl-3-(1-piperidinylmethyl)-7-quinolinyl][1,1′-biphenyl]-4-carboxamide] |  |
| 189 to 190 °C | CSc1ccc(-c2ccc(C(=O)Nc3ccc4cc(CN5CCCC5)cnc4c3C)c(F)c2)cc1 [Example 144, 3-fluoro-N-[8-methyl-3-(1-pyrrolidinylmethyl)-7-quinolinyl]-4′-(methylsulfanyl)[1,1′-biphenyl]-4-carboxamide] |  |
| 187 to 188 °C | Cc1c(NC(=O)c2ccc(-c3ccccc3)cc2F)ccc2cc(CN3CCCCC3)cnc12 (hydrate or solvate) [Example 169, 3-fluoro-N-[8-methyl-3-(1-piperidinylmethyl)-7-quinolinyl][1,1′-biphenyl]-4-carboxamide] |  |
| 207 °C | Cc1cc2cc(CN3CCCCCC3)cnc2cc1NC(=O)c1ccc(-c2cc3ccccc3o2)cc1 [Example 240, N-[3-(1-azepanylmethyl)-6-methyl-7-quinolinyl]-4-(1-benzofuran-2-yl)benzamide] |  |
| 178 °C | O=C(Nc1ccc2cc(CN3CCCC3)cnc2c1F)c1ccc(-c2ccc(F)cc2)cc1 [Example 73, 4′-fluoro-N-[8-fluoro-3-(1-pyrrolidinylmethyl)-7-quinolinyl][1,1′-biphenyl]-4-carboxamide] |  |
| 193 to 196 °C | Cc1cc2cc(CN3CCC(CCC(=O)N(C)C)CC3)cnc2cc1NC(=O)c1ccc(-c2ccc(F)cc2)cc1 [Example 256, N-[3-({4-[3-(dimethylamino)-3-oxopropyl]-1-piperidinyl}methyl)-6-methyl-7-quinolinyl]-4′-fluoro[1,1′-biphenyl]-4-carboxamide] |  |
| 233 °C (dec.) | O=C(Nc1ccc2cc(CN3CCCCCC3)cnc2c1)c1ccc(-c2ccc(Cl)cc2)nc1 [Example 32, N-[3-(1-azepanylmethyl)-7-quinolinyl]-6-(4-chlorophenyl)nicotinamide] |  |
| 187 to 188 °C | Cc1c(NC(=O)c2ccc(-c3ccc4c(c3)OCCO4)cc2)ccc2cc(CN3CCCC3)cnc12 (hydrate or solvate) [Example 115, 4-(2,3-dihydro-1,4-benzodioxin-6-yl)-N-[8-methyl-3-(1-pyrrolidinylmethyl)-7-quinolinyl]benzamide] |  |
| 237 °C (dec.) | Cc1ccc(-c2ccc(C(=O)Nc3ccc4cc(CN5CCCCCC5)cnc4c3)cn2)cc1 [Example 33, N-[3-(1-azepanylmethyl)-7-quinolinyl]-6-(4-methylphenyl)nicotinamide] |  |
| 266 to 267 °C | CCc1c(NC(=O)c2ccc(-c3ccc(F)cc3)cc2)ccc2cc(CN3CCCC3)cnc12 [Example 83, N-[8-ethyl-3-(1-pyrrolidinylmethyl)-7-quinolinyl]-4′-fluoro[1,1′-biphenyl]-4-carboxamide] |  |
| 136 to 137 °C | O=C(Nc1ccc2cc(CN3CCCC3)cnc2c1F)c1ccc(-c2ccccc2)cc1F [Example 77, 3-fluoro-N-[8-fluoro-3-(1-pyrrolidinylmethyl)-7-quinolinyl][1,1′-biphenyl]-4-carboxamide] |  |
| 250 to 253 °C | CC(=O)NC1CCN(Cc2cnc3cc(NC(=O)c4ccc(-c5ccc(F)cc5)cc4)ccc3c2)C1 (centres unmarked) [Example 43, N-(3-{[3-(acetylamino)-1-pyrrolidinyl]methyl}-7-quinolinyl)-4′-fluoro[1,1′-biphenyl]-4-carboxamide] |  |
| 210 to 212 °C | CNC(=O)CCCC1CCN(Cc2cnc3c(C)c(NC(=O)c4ccc(-c5ccc(F)cc5)cc4)ccc3c2)CC1 [Example 207, 4′-fluoro-N-[8-methyl-3-({4-[4-(methylamino)-4-oxobutyl]-1-piperidinyl}methyl)-7-quinolinyl][1,1′-biphenyl]-4-carboxamide] |  |
